Values joined by “and” are separate entries in the source; they are usually repeats but may differ in a detail not shown here. Equal values may be shown once.
Legend:
MSSA in the nares [1] = assay: Nasal colonization human study Part Two, laser plus topical erythromycin, MSSA; type: in vivo, S. aureus; conditions: one patient, baseline count >1000 CFU's; day 5 culture
Experimental: A second human study was conducted, to further evaluate the therapeutic potential of the NOVEON™ laser system, including its ability to reverse drug resistance in bacteria. The study was conducted in a similar manner as Part One, above. Outcome measures assessed included both laboratory study and clinical observations.
Positive anterior nares cultures were obtained in six patients (12 nostrils) having nasal colonization of MRSA or MSSA, before initiating bacterial photodamage through doses of phototherapeutic near infrared radiation. One patient had MRSA only, 3 had MSSA only, and 2 had both MRSA and MSSA.
The swab was inserted approximately 1 cm in to the anterior nares of the subject, rotated 360 degrees several times and removed.
The laser was calibrated before the first treatment of the day and between each patient. The NOVEON™ laser was used for four six-minute treatments of the nares at the following sets of dosimetries (Tables 59), which were evaluated for safety in previous studies. […] Temperatures of the nares were recorded every 30 seconds with an IR temperature thermometer.
Quantitative cultures from each nostril were obtained and plated in triplicate on chromogenic agar before and 20 minutes after exposure on day 1 and day 3. […]

MRSA = assay: CFU counts of MRSA plated on agar with antibiotic after sub-lethal NIMELS laser (Examples IX-XII); type: cell-based, Staphylococcus aureus; conditions: for effect of sub-lethal NIMELS irradiation on antibiotic action against MRSA colonies (words): antibiotic at resistant MIC just below effectiveness level
Excerpt: The following parameters illustrate the general bacterial methods according to the invention as applied to MRSA for the in vitro Experiments V and VIII-XII.
The null hypothesis is μ1−μ2=0 and μ1−μ3=0 where:
a) μ1 is sub-lethal dosimetry from the NIMEL laser system on MRSA as a control and;
The null hypothesis is μ1−μ2=0 and μ1−μ3=0 where: • a) μ1 is sub-lethal dosimetry from the NIMEL laser system on MRSA as a control and; • b)μ2 is the same sub-lethal dosimetry from the NIMEL laser system on MRSA with the addition of tetracycline at resistant MIC just below effectiveness level and; • c) μ3 is the same sub-lethal dosimetry from the NIMEL laser system on MRSA with the addition of rifampin at resistant MIC just below effectiveness level.
The null hypothesis is μ1−μ2=0 and μ1−μ3=0 where: a) μ1 is sub-lethal dosimetry from the NIMEL laser system on MRSA as a control and; b)μ2 is the same sub-lethal dosimetry from the NIMEL laser system on MRSA with the addition of methicillin at resistant MIC just below effectiveness level and; […]

MSSA in the nares [2] = assay: Nasal colonization human study Part One, quantitative swab cultures, MSSA; type: in vivo, S. aureus; conditions: for s. aureus Average: laser w/ drug arm, one line per patient
Experimental: (§1) This investigational protocol was an open-label study of subjects who are colonized with MRSA in the nares (nostril). The study was done in two parts.
(§2) In this human study, three arms were produced. […] This was done on day 1 and again on day three; and Arm #3: ⅓ of the subjects were treated with the laser and then a topical antibiotic three times a day for five days. Prior to enrollment in this study, prospective subjects met all of the following criteria: age≧18 years and ≦70 years of age; previous positive MRSA culture; negative urine pregnancy test or post-menopausal for one year; willing to comply with study requirements, including return visits and self-application of topical antibiotics; and willing to provide informed consent to participate. Prospective subjects were excluded from this study if any of the following criteria were met: pregnancy; patients who are severely immunocompromised (such as may occur in AIDS, renal transplant regimens, immunosuppressed states consequent to malignancy or agents used in rendering oncologic care, or who suffer from end stage renal disease); diabetic patients; allergy to antimicrobials being used in the study (group 3).
(§3) All participants underwent an initial quantitative assessment for nasal carriage of S. aureus, during their first visit. Each participant had the anterior nares (each nostril) sampled for culture with a circular movement (three rotations on each side) of a sterile wood applicator plain Rayon® tipped swab in each nostril and placed in a labled tube. 2 ml of room temp phosphate buffered saline was placed in the tube after the removal of the swab (to completely cover the swab in the tube). Each swab was then placed back in the tube and the tube was then vortexed for 15 seconds to disperse isolates of MRSA and/or MSSA into the PBS solution. Aliquots of PBS from the tube were plated in the following manner: 100 μl from each tube was lawn plated in triplicate (3×) on selective Chromogenic MRSA And MSSA agar. Plates were placed in incubator within 30 minutes of the plating procedure, and colonies were counted manually, and recorded 18 hrs after plating.
(§4) On day one of the study, all subjects underwent this exact procedure in arms 1 and 2 of the study two minutes before the laser procedure. They again were sampled in the same manner 2 minutes after the laser procedure. In the third arm of the study, they were swabbed two minutes before the procedure and the first antibiotic administration was completed after the laser therapy. The post/laser swab sample was taken for this arm 20 min later.
(§5) On day three of the study, all subjects from arms one two and three underwent the exact same procedures as day 1 of the study.
(§6) On day five all subjects from all arms underwent just one swabbing per nostril with the exact same sampling procedure one time.
(§7) Application of H202: 3% OTC hydrogen peroxide was applied to a cotton pledget for application to the subject prior to irradiation. This was inserted in the nose for 120 seconds and then removed. The subjects were then given doses of phototherapeutic near infrared radiation as described. Application of generic topical Antimicrobial: The subjects were first given doses of phototherapeutic near infrared radiation as described. […] The swab was inserted approximately 1 cm in to the anterior nares and rotated 360 degrees several times and removed. Patients were instructed to perform the exact application procedure 3 times a day for the remaining 5 days.
(§8) The NOVEON™ laser was used for two (2) six-minute treatments in each nostril on day (1) and day (3) of the study.
(§9) The laser was calibrated before the first treatment of the day. Intermittent temperature testing of the treatment site was performed on each subject using a noncontact infrared thermometer (Raytek Minitemp), 30-60 second intervals.

MRSA in the nares = assay: Nasal colonization human study Part One, quantitative swab cultures, MRSA; type: in vivo, S. aureus; conditions: for MRSA Average: laser w/ drug arm, one line per patient; for reduction of bioburden: laser plus 2% erythromycin paste
Experimental: as §1, §2, §3, §4, §5, §6, §7, §8, §9

[3] = Initial Analysis, Post-treatment swab, left nostril
[4] = Initial Analysis, Post-treatment swab, right nostril
[5] = Initial Analysis, Pre swab (baseline), left nostril, mean of triplicate plates
[6] = Initial Analysis, Pre swab (baseline), right nostril
[7] = Second Analysis, Post-treatment swab, left nostril
[8] = Second Analysis, Post-treatment swab, right nostril
[9] = Second Analysis, Pre swab, left nostril
[10] = Second Analysis, Pre swab, right nostril
[11] = Third Analysis, Swab, left nostril
[12] = Third Analysis, Swab, right nostril
[13] = patient 01-005, 2% erythromycin paste three times a day for five days

## CC[C@H]1OC(=O)[C@H](C)[C@@H](O[C@H]2C[C@@](C)(OC)[C@@H](O)[C@H](C)O2)[C@H](C)[C@@H](O[C@@H]2O[C@H](C)C[C@H](N(C)C)[C@H]2O)[C@](C)(O)C[C@@H](C)C(=O)[C@H](C)[C@@H](O)[C@]1(C)O [Erythromycin]
MSSA in the nares [1]
  reduction in MSSA: 3 log
MRSA
  effect of sub-lethal NIMELS irradiation on antibiotic action against MRSA colonies (words): successful reversal of MRSA resistance
MRSA; listed as erythromycin
  effect of sub-lethal NIMELS irradiation on antibiotic action against MRSA colonies (words): resistance to erythromycin being reversed
MRSA; no laser, agar with erythro 4 ug/ml, replicates B-4 1 to 5
  MRSA colony count, CONTROL (no laser): 196 and 168 and 175 and 177 and 195
MRSA; sub-lethal NIMELS laser, agar with erythro 4 ug/ml, replicates B-4 1 to 5
  MRSA colony count, EXPERIMENTAL: 27 and 39 (2×) and 35 and 28
MSSA in the nares [2]; [3]
  s. aureus Average: 0 CFU (2×) and 188 CFU
MSSA in the nares [2]; [4]
  s. aureus Average: 0 CFU
MSSA in the nares [2]; [5]
  s. aureus Average: 0 CFU (2×) and 3045 CFU
MSSA in the nares [2]; [6]
  s. aureus Average: 0 CFU (2×) and 16 CFU
MSSA in the nares [2]; [7]
  s. aureus Average: 0 CFU
MSSA in the nares [2]; [8]
  s. aureus Average: 0 CFU
MSSA in the nares [2]; [9]
  s. aureus Average: 0 CFU (2×) and 71 CFU
MSSA in the nares [2]; [10]
  s. aureus Average: 0 CFU
MSSA in the nares [2]; [11]
  s. aureus Average: 0 CFU
MSSA in the nares [2]; [12]
  s. aureus Average: 0 CFU
MSSA in the nares [2]; [13]
  outcome on MSSA colonization, laser plus topical erythromycin: eradication in both nostrils
MRSA in the nares; [3]
  MRSA Average: 0 CFU (2×) and 166 CFU
MRSA in the nares; [4]
  MRSA Average: 0 CFU (2×) and 1 CFU
MRSA in the nares; [5]
  MRSA Average: 0 CFU (2×) and 3072 CFU
MRSA in the nares; [6]
  MRSA Average: 0 CFU (2×) and 8 CFU
MRSA in the nares; [7]
  MRSA Average: 0 CFU
MRSA in the nares; [8]
  MRSA Average: 0 CFU
MRSA in the nares; [9]
  MRSA Average: 0 CFU (2×) and 76 CFU
MRSA in the nares; [10]
  MRSA Average: 0 CFU
MRSA in the nares; [11]
  MRSA Average: 0 CFU
MRSA in the nares; [12]
  MRSA Average: 0 CFU
MRSA in the nares; patient 01-005, heavily colonized nostril
  reduction of bioburden: ≥ 3 log
MRSA in the nares; patient 01-005, moderately colonized nostril
  reduction of bioburden: ≥ 2 log
MRSA in the nares; [13]
  outcome on MRSA colonization, laser plus topical erythromycin: eradication in both nostrils
